The source of these data is PubChem BioAssay AID1956 (SRMLSC, 2009).

Active and inactive are the calls of the source. Cut-off read from the data, not from the text of the source: active = maximum fold increase above about 1.5; inconclusive = no clear call, values can overlap the other calls; inactive = below that; tested in PC3 cells. Where only a bound is given, the exact number is not on record here.

For this assay, the system named is HSV replication augmentation in cells, fold increase. As to the kind of experiment: compounds boosting herpes simplex virus growth – fold increase, host cell viability (AID 1956).
The EC50 is the midpoint of the concentration-response curve. Turning to `Cc1nc2ccccc2c2oc(C(=O)N3CCc4ccccc4C3)cc12`, the EC50 was > 25 µM (inactive).
For `CCN(CC)c1ccc(CC2C(=O)N(C)C(=O)N(C)C2=O)cc1`, the EC50 was > 25 µM (inactive).
With `CC(C)(C)c1ccc(Oc2ccc(N)cn2)cc1`, the EC50 was > 25 µM (inactive).
Take `CCOC(=O)C1=C(N)Oc2c(oc(CO)cc2=O)C1c1ccc(Cl)cc1` (stereo not drawn): the EC50 is > 25 µM (inactive).
As to `O=C(Nc1nc(-c2ccccn2)cs1)c1cccc(-n2cnnn2)c1`, the EC50 is > 25 µM (inactive).
Regarding `O=C1CC(/C=C/c2ccccn2)=Nc2ccccc2N1`, the EC50 is 22.8 µM (inactive).
Under `Cc1ccc(Cn2c(=N)n(CC(O)c3ccco3)c3ccccc32)cc1` (stereo not drawn) stands > 25 µM (inactive).
Under `Cc1cccc2nc3c(nc12)-c1ccccc1C3=O` stands > 25 µM (inactive); under `O=C(O)c1ccc(/C=N/Nc2ncc(C(F)(F)F)cc2Cl)cc1`, > 25 µM (inactive); under `O=C1NC(c2ccccc2)=N/C1=C/c1ccco1`, > 25 µM (inactive).
`O=C1CCCC2=C1C(c1ccc(Cl)cc1)n1c(s/c(=C\c3ccc4ccncc4c3)c1=O)=N2` (stereo not drawn): the EC50 was > 25 µM (inactive).
As to `CC(C)Oc1ncnc2c1[nH]c1ccccc12`, the EC50 was 3.18 µM (inactive).
Under `COc1ccc(C2C(C#N)=C(N)N(c3sc4c(c3C#N)CCCC4)C3=C2C(=O)CC(C)(C)C3)cc1` (stereo not drawn) stands > 25 µM (inactive).
Turning to `Cc1cccc(CSc2nnc(-c3cnccn3)n2C)c1`, the EC50 was > 25 µM (inactive).
Under `O=C(Nc1ccccc1C(=O)Nc1ccccc1C(=O)NCc1ccco1)c1ccco1` stands > 25 µM (inactive); under `NC(=S)Nc1cc(Cl)cc(Cl)c1`, > 25 µM (inactive).
As to `NS(=O)(=O)c1ccc(NC(=O)COC(=O)c2c3c(nc4ccccc24)/C(=C\c2ccc4c(c2)OCO4)CCC3)cc1`, the EC50 is > 25 µM (inactive).
For the compound `Nc1cccnc1Sc1cc(Cl)c(Cl)cc1Cl`, the EC50 is > 25 µM (inactive).
As to `CC(C)(C)c1cc(-c2n[nH]c(=S)n2-c2ccccc2F)n[nH]1`, the EC50 is > 25 µM (inactive).
Consider `N#CC1=C2N=C(N)c3ccccc3N2C2=C(C(=O)CCC2)C1c1ccc(Cl)cc1` (stereo not drawn), for which the EC50 was > 25 µM (inactive).
For the compound `Cc1ccc(C(=O)NNC2=Nc3cccc4cccc2c34)cc1`, the EC50 is > 25 µM (inactive).
`Cc1cccc(N=C2NC(=O)/C(=C/C=C/c3ccco3)S2)c1`: the EC50 was > 25 µM (inactive).
For `COc1ccc(OC2C(=O)N(Cc3ccc4c(c3)OCO4)C2c2sccc2C)cc1` (stereo not drawn), the EC50 was > 25 µM (inactive).
`CCOC(=O)COc1ccc(S(=O)(=O)Nc2ccc(C)cc2)cc1`: the EC50 is > 25 µM (inactive).
In the case of `CCN1C(=O)/C(=C/C=C2\C=CN(CC)c3ccccc32)SC1=S`, the EC50 is > 25 µM (inactive).
Turning to `CCOC(=O)c1c(NC(=O)c2cc3n(n2)C(C(F)(F)F)CC(c2cccs2)N3)sc(C)c1C` (stereo not drawn), the EC50 was 16.6 µM (inactive).
For the compound `COc1ccccc1NC(=O)c1ccc(Br)o1`, the EC50 is > 25 µM (inactive).
In the case of `C=CCN1C(=O)[C@]2(c3ccccc31)C1CCCC=C1C(C#N)=C(N)C2(C#N)C#N` (stereo partly drawn), the EC50 was > 25 µM (inactive).
